Assay results published in publication PMC9604255, “Discovery of Simple Diacylhydrazine-Functionalized Cinnamic Acid Derivatives as Potential Microtubule Stabilizers” (International Journal of Molecular Sciences, 2022).

Columns and labels:
A549 cancer cells = assay: MTT antiproliferative assay, A549; type: cell-based, human; conditions: Homo sapiens, A549; MTT assay after 48 h
From the text: (§1) An A549 (human non-small cell lung cancer cell line) cell line was purchased from the Shanghai Cell Bank of the Chinese Academy of Sciences; PC-3 (human prostate cancer cell line) cell line was donated by the Key Laboratory of Natural Product Chemistry of the Chinese Academy of Sciences of Guizhou Province; HepG2 (human liver cancer cell line) and NRK 52E (normal rat kidney cell line) cell line was donated by Guizhou Medical University; all cell lines were kept by the laboratory.
(§2) The antiproliferative activity of target compounds against A549, PC-3, HepG2, and NRK-52E were determined by MTT assay, as described in previous articles. The assay was recorded at 490 nm by an Infinite® M200 PRO multimode microplate (Tecan, Männedorf, Switzerland).

[1] = tested on: cellular microtubule network of HepG2 cells; assay: Immunofluorescence staining of tubulin; type: cell-based, human; conditions: 3 and 6 μM, 24 h
Experimental: According to the previous methods, compound solutions of various concentrations were added to a 6-well plate in which HepG2 cells had been seeded for 12 h. After incubation for 24 h and washed with phosphate-buffered saline (PBS, 10 mM, pH 7.3), each well was treated with 4% formaldehyde solution for 15 min and washed with 0.1% Triton X-100 of phosphate-buffered saline (PBS, 10 mM, pH 7.3). After that, the fixed cells were incubated with diluted tubulin-tracker red for 40 min in a dark environment, followed by washing three times by 0.1% Triton X-100 of phosphate-buffered saline (PBS, 10 mM, pH 7.3). Finally, each well was added DAPI (2 μg/mL). Finally, the results were observed using a Nikon ECLIPSE Ti-S fluorescent microscope (Nikon Co, Tokyo, Japan).

A549 cells = assay: Scratch test (cell migration); type: cell-based, human
Experimental: According to the previous methods, A549 cells of the logarithmic growth stage were cultured in 6-well plates with two lines on the back, with each well containing a density of 1 × 10^6 cells/mL. After the cells adhered to the wall, three uniform thin lines were drawn in each well by a sterile pipette tip. Afterward, the medium containing 1% fetal bovine serum (FBS) and various concentrations of compounds were added in wells. After the different time of incubation, the cells were performed by an inverted fluorescence microscope. Then the scratch healing rate was calculated: Migration distance (n h) = edge distance (0 h) − edge distance (12 h or 24 h).

HepG2 cells [2] = assay: Hoechst apoptosis experiment; type: cell-based, human; conditions: HepG2, 6 μM, 24 h
Experimental: In this assay, HepG2 cells were seeded in 6-well plates, after 24 h of incubation, different compounds were added at various concentrations, and cells were incubated again for 24 h. Afterward, the medium was removed and cells were washed twice with phosphate-buffered saline (PBS, 10 mM, pH 7.3), and fixed with 4% paraformaldehyde for 15 min at room temperature, then stained with […] Hoechst 33258 in PBS for 20 min at 37 °C in the dark. After incubation, the cells were incubated with an anti-fluorescent attenuator and imaged with an inverted fluorescence microscope.

[3] = tested on: A549, PC-3 and HepG2 cancer cell lines; assay: MTT antiproliferative assay, three cancer lines together; type: cell-based; conditions: Homo sapiens; range over A549, PC-3 and HepG2; read-out: IC50 values against three cancer lines
From the text: An A549 (human non-small cell lung cancer cell line) cell line was purchased from the Shanghai Cell Bank of the Chinese Academy of Sciences; PC-3 (human prostate cancer cell line) cell line was donated by the Key Laboratory of Natural Product Chemistry of the Chinese Academy of Sciences of Guizhou Province; HepG2 (human liver cancer cell line) and NRK 52E (normal rat kidney cell line) cell line was donated by Guizhou Medical University; all cell lines were kept by the laboratory. Cells were maintained in RPMI 1640 or DMEM complete medium.
The antiproliferative activity of target compounds against A549, PC-3, HepG2, and NRK-52E were determined by MTT assay, as described in previous articles. The assay was recorded at 490 nm by an Infinite® M200 PRO multimode microplate (Tecan, Männedorf, Switzerland). Curcumin, gefitinib, and colchicine were used as positive controls.

PC-3 cancer cells = assay: MTT antiproliferative assay, PC-3; type: cell-based, human; conditions: Homo sapiens; MTT assay after 48 h
From the text: as §1, §2

NRK-52E cells = assay: MTT cytotoxicity assay, normal NRK-52E cells; type: cell-based; conditions: MTT assay after 48 h, normal rat kidney cell line
From the text: as §1, §2

HepG2 cancer cells = assay: MTT antiproliferative assay, HepG2; type: cell-based, human; conditions: Homo sapiens, HepG2, 48 h, MTT assay after 48 h; read-out: IC50 HepG2
From the text: as §1, §2

tubulin [4] = target: T1, tubulin (Sus scrofa, UniProt P02554); assay: Tubulin polymerization assay in vitro; type: biochemical; conditions: 10 μM and 20 μM; 4 mg/mL tubulin, 37 °C, 340 nm
T1 construct: purchased Cytoskeleton, Inc. BK004P
T1 sequence (P02554 whole entry): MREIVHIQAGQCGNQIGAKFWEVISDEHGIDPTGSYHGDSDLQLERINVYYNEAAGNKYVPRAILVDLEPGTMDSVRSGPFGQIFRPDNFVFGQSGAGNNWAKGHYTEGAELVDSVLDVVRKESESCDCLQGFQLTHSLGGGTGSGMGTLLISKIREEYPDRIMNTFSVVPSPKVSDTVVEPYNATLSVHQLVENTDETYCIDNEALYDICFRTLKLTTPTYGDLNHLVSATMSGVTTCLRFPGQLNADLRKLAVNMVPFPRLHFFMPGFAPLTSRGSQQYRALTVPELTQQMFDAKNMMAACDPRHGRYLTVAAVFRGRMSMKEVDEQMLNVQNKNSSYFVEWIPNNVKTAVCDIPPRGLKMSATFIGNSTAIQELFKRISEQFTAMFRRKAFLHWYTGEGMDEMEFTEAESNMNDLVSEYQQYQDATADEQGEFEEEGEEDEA
T1 sequence (P02550 whole entry partner): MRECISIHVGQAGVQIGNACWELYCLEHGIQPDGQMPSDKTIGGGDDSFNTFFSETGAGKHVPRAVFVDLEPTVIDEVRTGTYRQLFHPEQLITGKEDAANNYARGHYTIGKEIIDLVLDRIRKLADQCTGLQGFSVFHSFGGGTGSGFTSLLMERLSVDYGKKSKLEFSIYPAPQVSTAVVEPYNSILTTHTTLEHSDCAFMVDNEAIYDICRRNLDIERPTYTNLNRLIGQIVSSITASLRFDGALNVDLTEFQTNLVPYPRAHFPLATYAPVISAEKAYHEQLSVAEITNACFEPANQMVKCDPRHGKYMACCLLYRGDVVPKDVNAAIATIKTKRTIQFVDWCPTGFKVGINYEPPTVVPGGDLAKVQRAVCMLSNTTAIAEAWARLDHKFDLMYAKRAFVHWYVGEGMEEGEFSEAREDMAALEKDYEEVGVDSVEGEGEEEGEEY
Experimental: The tubulin polymerization assay in vitro was determined by HTS-Tubulin Polymerization Assay Kit (#BK004P, Cytoskeleton, Inc., Denver, CO, USA) as described in previous articles. The plate was pre-warmed at 37 °C, and the reaction assay contained 100 μL 4 mg/mL tubulin in G-PEM buffer. Then, 10 μL (10×) compounds solution or 100 μM paclitaxel solution as a control. Finally, the polymerization was carried out at 37 °C and recorded at 340 nm each 10 s for 70 min using Cytation™ 5 multi-mode readers.

tubulin [5] = assay: Tubulin polymerization via TEM; type: biochemical; conditions: 20 μM + 4 mg/mL tubulin
Experimental: Briefly, according to the protocol of tubulin polymerization assay, the 100 μL centrifuge tubes were pre-warmed at 37 °C, and the reaction assay contained 20 μL 4 mg/mL tubulin in G-PEM buffer. Then, 2 μL (10×) compounds solution was added. Finally, the assay was carried out at 37 °C for 30 min. The formed microtubules were transferred to Formvar-caron-coated copper grids, negatively stained with 1% phosphotungstic acid, and visualized under a transmission electron microscope.

HepG2 cells [6] = assay: Cell cycle analysis by flow cytometry; type: cell-based, human; conditions: HepG2, 24 μM, 24 h (0 μM: 17.68%)
Experimental: The cells in the 6-well plates were carefully collected 24 h after dosing. After the cells were washed with pre-cooled PBS, the pre-cooled 70% ethanol solution was added for fixation (4 °C overnight). After that, the cells were washed with PBS, and incubated with 1 mg/mL RNase A for 30 min at 37 °C). Then, […] PI staining solution was added and incubated in the dark for 30 min at 4 °C. Finally, the cell arrest was analyzed by the FACSCalibur™ flow cytometer (Becton Dickinson Immunocytometry Systems, San Jose, CA, USA) as previously described.

## COc1cccc(/C=C/C(=O)NNC(=O)/C=C/c2ccc([N+](=O)[O-])cc2)c1 [I23]
A549 cancer cells
  IC50: 5.99 ± 1.07 µM
[1]
  Effect on cellular microtubule network (immunofluorescence): agminated microtubule network and wrinkled nucleus were observed
A549 cells; A549, 3 μM, 12 h (control 12.5%)
  Cell relative migration (migration rate): 8.93%
A549 cells; A549, 3 μM, 24 h (control 24.4%)
  Cell relative migration (migration rate): 18.7%
A549 cells; A549, 6 μM, 12 h (control 12.5%)
  Cell relative migration (migration rate): 6.07%
A549 cells; A549, 6 μM, 24 h (control 24.4%)
  Cell relative migration (migration rate): 13.2%
HepG2 cells [2]
  Apoptosis effect (Hoechst 33258 staining): a strong apoptotic phenomenon happened
[3]
  IC50: 3.36 to 5.99 µM
PC-3 cancer cells
  IC50: 4.17 ± 0.57 µM
NRK-52E cells
  IC50: 6.99 ± 1.6 µM
HepG2 cancer cells
  IC50: 3.36 ± 0.8 µM
Tubulin [4]
  Effect on tubulin polymerization: could stabilize tubulin assembly and promote protofilament assembly in a dosage-dependent manner
Tubulin [5]
  Effect on tubulin polymerization seen by TEM: more large nonlinear disorganized aggregations
HepG2 cells [6]
  Percentage of cell, G2/M: 20.56%
